Columns and labels:
Type in all cases: cell-based
H358 cells = experiment: H358 proliferation assay (CellTiter-Glo); details: Homo sapiens, NCI-H358, 120 h, 120 h incubation, read-out: IC50 (nM), inhibitory activity against H358 cell proliferation
Experimental: The inhibitory activity of the compounds of the present disclosure against H358 cell proliferation was measured. Below is a brief description of the experimental method: H358 cells (ATCC, CRL-5807) were cultured in RPMI1640 medium (Hyclone, SH30809.01) containing 10% fetal bovine serum (Corning, 35-076-CV) (i.e., complete medium). On the first day of the experiment, H358 cells were seeded into a 96-well plate at a density of 1200 cells/well using complete medium, with 100 μL of cell suspension per well, and the plate was incubated overnight in a 37° C., 5% CO2 cell incubator. On the second day, the test compounds, prepared in complete medium and serially diluted, were added at 10 μL/well. The final concentrations of the compounds were 9 concentration points obtained by a 5-fold serial dilution from 10 μM. A blank control containing 0.5% DMSO was set up. The plate was incubated for 120 h in a 37° C., 5% CO2 cell incubator. On the seventh day, the 96-well cell plate was removed from the incubator, and CellTiter-Glo® Luminescent Cell Viability Assay (Promega, G7573) was added at 50 μL/well. After 10 min of room temperature incubation, luminescence signals were measured using a multifunctional microplate reader (PerkinElmer, EnVision® 2105). The IC50 values for the inhibitory activity of the compounds were calculated using Graphpad Prism software.

MIA PaCa-2 cells = experiment: MIA PaCa-2 cell proliferation assay (CellTiter-Glo); details: Homo sapiens, MIA PaCa-2, 72 h, 72 h incubation, read-out: IC50 (nM), inhibitory activity against MIA PaCa-2 cell proliferation
Experimental: The inhibitory activity of the compounds of the present disclosure against MIA PaCa-2 cell proliferation was measured. Below is a brief description of the experimental method:
MIA PaCa-2 cells (ATCC, CRL-1420) were cultured in DMEM/HIGH GLUCOSE medium (GE, SH30243.01) containing 10% fetal bovine serum (Corning, 35-076-CV) and 2.5% horse serum (Beyotime Biological Tech., C0262) (i.e., complete medium). On the first day of the experiment, MIA PaCa-2 cells were seeded into a 96-well plate at a density of 500 cells/well using complete medium, with 90 µL of cell suspension per well, and the plate was incubated overnight in a 37° C., 5% CO2 cell incubator. On the second day, the test compounds, prepared in complete medium and serially diluted, were added at 10 μL/well. The final concentrations of the compounds were 9 concentration points obtained by a 5-fold serial dilution from 10 μM. A blank control containing 0.5% DMSO was set up. The plate was incubated for 72 h in a 37° C., 5% CO2 cell incubator. On the fifth day, the 96-well cell plate was removed from the incubator, and CellTiter-Glo® Luminescent Cell Viability Assay (Promega, G7573) was added at 50 μL/well. After 10 min of room temperature incubation, luminescence signals were measured using a multifunctional microplate reader (PerkinElmer, EnVision2015). The IC50 values for the inhibitory activity of the compounds were calculated using Graphpad Prism software.

[1] = test system: ERK phosphorylation in H358 cells; experiment: H358 cell ERK phosphorylation inhibition assay (HTRF pERK/total ERK); details: Homo sapiens, NCI-H358, 3 h, 3 h incubation, ratio of pERK/total ERK, read-out: IC50 (nM), inhibitory effects on ERK phosphorylation in H358 cells
Experimental: The inhibitory effects of the compounds of the present disclosure on ERK phosphorylation in H358 cells were measured. Below is a brief description of the experimental method: H358 cells (ATCC, CRL-5807) were cultured in RPMI1640 medium (Hyclone, SH30809.01) containing 10% fetal bovine serum (Corning, 35-076-CV) (i.e., complete medium). On the first day of the experiment, H358 cells were seeded into a 96-well plate at a density of 25,000 cells/well using complete medium, with 190 μL of cell suspension per well, and the plate was incubated overnight in a 37° C., 5% CO2 cell incubator. On the second day, the test compounds, prepared in complete medium and serially diluted, were added at 10 μL/well. The final concentrations of the compounds were 9 concentration points obtained by a 6-fold serial dilution from 10 μM. A blank control containing 0.5% DMSO was set up. The plate was incubated for 3 h in a 37° C., 5% CO2 cell incubator. After 3 h, the 96-well cell culture plate was removed from the incubator, and the culture medium was pipetted off. PBS (Shanghai BasalMedia Technologies Co., Ltd., B320) was added at 200 μL/well for a single wash. PBS was pipetted off, and lysis buffer (Cisbio, 64KL1FDF) containing a blocking agent (Cisbio, 64KB1AAC) was added at 50 μL/well. The plate was incubated on a shaker for 30 min at room temperature to lyse the cells. After lysis, the lysates were well mixed by pipetting, and 16 μL of lysate was transferred from each well to two HTRF 96-well assay plates (Cisbio, 66PL96100). Subsequently, 4 μL of a premixed phospho-ERK1/2 antibody solution (Cisbio, 64AERPEG) or 4 μL of a premixed total-ERK1/2 antibody solution (Cisbio, 64NRKPEG) was added to each of the plates. The plates were sealed with a plate sealer film, centrifuged for 1 min in a microplate centrifuge, and incubated overnight at room temperature in the dark. On the third day, fluorescence values at an excitation wavelength of 337 nm and emission wavelengths of 665 nm and 620 nm were measured using a PHERAstar multifunctional microplate reader (BMG Labtech, PHERAstar FS). The IC50 values for the inhibitory activity of the compounds were calculated using Graphpad Prism software, based on the compound concentration and the ratio of pERK/total ERK.

IC50 (H358 cells) [nM] | IC50 (MIA PaCa-2 cells) [nM] | IC50 [1] [nM] | Compound
10.5 | 5.87 | 0.28 | C=CC(=O)N1CCN2C(=O)c3cc(F)c(-c4ccc(F)c5sc(N)c(C#N)c45)c4ccn(c34)CC[C@H]2C1 [Example 2, 4-((S)-10-Acryloyl-2-fluoro-14-oxo-8,8a,9,10,11,12-hexahydro-7H,14H-pyrazino[1′,2′:5,6][1,5]diazocino[3,2,1-hi]indol-3-yl)-2-amino-7-fluorobenzo[b]thiophene-3-carbonitrile]
13.4 | 11.2 | 1.16 | C=CC(=O)N1CCN2C(=O)c3cc(F)c(-c4ccc(F)c5sc(N)c(C#N)c45)c4cc(C)n(c34)CC[C@H]2C1 [Example 4, 4-((S)-10-Acryloyl-2-fluoro-5-methyl-14-oxo-8,8a,9,10,11,12-hexahydro-7H,14H-pyrazino[1′,2′:5,6][1,5]diazocino[3,2,1-hi]indol-3-yl)-2-amino-7-fluorobenzo[b]thiophene-3-carbonitrile]
0.8 | 0.94 | 0.15 | C=CC(=O)N1C[C@@H]2CCn3ncc4c(-c5ccc(F)c6sc(N)c(C#N)c56)c(F)cc(c43)C(=O)N2C[C@H]1C [Example 10, 4-((8aS,11R)-10-Acryloyl-2-fluoro-11-methyl-14-oxo-8,8a,9,10,11,12-hexahydro-7H,14H-pyrazino[1′,2′:5,6][1,5]diazocino[3,2,1-hi]indazol-3-yl)-2-amino-7-fluorobenzo[b]thiophene-3-carbonitrile]
